Reference: US20070243137A1, “Cell and sub-cell methods for imaging and therapy” (priority 2006, published 2007)
Values joined by “and” are separate entries in the source; they are usually repeats but may differ in a detail not shown here. Equal entries are not always repeated.

Key:
[1] = in vivo; cited from earlier work
[2] = MRI imaging (1.5 Tesla, T1) of rat bearing subcutaneous F98 glioma tumor after intravenous injection; assay type: in vivo
Experimental: A male rat bearing a subcutaneous F98 glioma tumor in its thigh was anesthetized and a catheter inserted into the femoral vein. The animal was then placed in a 1.5 Tesla clinical MRI scanner with a head coil around it. T1 images were acquired before injection. The sample in example 2 was used without further purification, and an amount was injected, corresponding to a dose of 0.1 mmol Gd/kg, which is the recommended dose/weight for gadodiamide use in vivo. Images were acquired using both T1 and T2 modes. […] For comparison, a rat bearing a similar tumor was injected with 0.1 mmol gadodiamide/kg. […] Many of the smaller vesicles filtered through the kidneys, since at 30 min post injection not only was contrast seen in the urine in the bladder (as also seen with the gadodiamide only preparation), but high contrast was seen on the surface of the urine in the bladder. This may be explained by the lower density of the lipid-containing vesicles, allowing them to float on the surface. […] It should be noted that whatever the fate of the contrast agent is, only an FDA approved standard amount was injected, and should not cause any toxic effects.

[3] = abdominal aorta, 10 min after injection
[4] = hepatic portal vein, 10 min after injection
[5] = inferior vena cava, 10 min after injection

O=C([O-])CN(CCN(CC(=O)[O-])CC(=O)O)CCN(CC(=O)[O-])CC(=O)O.[Gd+3] [Gd-DTPA, gadolinium diethytriaminepentaacetic acid]
blood half-life [1]: ~20 min

CNC(=O)CN(CCN(CCN(CC(=O)[O-])CC(=O)NC)CC(=O)[O-])CC(=O)[O-].[Gd+3] [gadodiamide, Gadolinium diethylenetriaminepentaacetic acid bismethyl-amide]
maximal tumor contrast relative to rat given vesicle-loaded gadodiamide ([2]; 0.1 mmol gadodiamide/kg, rat with similar tumor): approximately one-half
After injection (HU), tumor ([2]; F98 glioma tumor in thigh, 10 min after i.v. injection, 0.1 mmol Gd/kg): 828±82 HU and 828 HU
After injection (HU), Abdominal Aorta ([2]; abdominal aorta, 10 min after i.v. injection, 0.1 mmol Gd/kg): 627±76 HU and 627 HU
Contrast change (HU), Abdominal Aorta [2, 3]: 9 HU
Percent change, Abdominal Aorta [2, 3]: 1%
After injection (HU), Heart ([2]; heart, 10 min after i.v. injection, 0.1 mmol Gd/kg, T1): 540±137 HU and 540 HU
Contrast change (HU), Heart ([2]; heart, 10 min after injection): 91 HU
Percent change, Heart ([2]; heart, 10 min after injection): 20%
After injection (HU), hepatic portal vein ([2]; hepatic portal vein, 10 min after i.v. injection, 0.1 mmol Gd/kg): 774±47 HU and 774 HU
Contrast change (HU), hepatic portal vein [2, 4]: 96 HU
Percent change, hepatic portal vein [2, 4]: 14%
After injection (HU), Inferior vena cava ([2]; inferior vena cava, 10 min after i.v. injection, 0.1 mmol Gd/kg): 770±49 HU and 770 HU
Contrast change (HU), Inferior vena cava [2, 5]: 10 HU
Percent change, Inferior vena cava [2, 5]: 1%
After injection (HU), Kidney ([2]; kidney, 10 min after i.v. injection, 0.1 mmol Gd/kg): 1411±136 HU and 1411 HU
Contrast change (HU), Kidney ([2]; kidney, 10 min after injection): 848 HU
Percent change, Kidney ([2]; kidney, 10 min after injection): 151%
After injection (HU), Liver ([2]; liver, 10 min after i.v. injection, 0.1 mmol Gd/kg): 831±27 HU and 804±58 HU and 831 HU
Contrast change (HU), Liver ([2]; liver, 10 min after injection): 16 HU
Percent change, Liver ([2]; liver, 10 min after injection): 2%
vascular contrast in T1 mode ([2]; minutes after injection up to 20 minutes or more, 0.1 mmol/kg): not significantly contrasted
Contrast change (HU), tumor ([2]; tumor, 10 min after injection): 321 HU
Percent change, tumor ([2]; tumor, 10 min after injection): 63%
blood half-life [1]: ~20 min
